Reference: US20260285850A1, “SUBSTITUTED OXAZOLIDINONES AND IMIDAZOLINONES AS HERBICIDES” (FMC CORPORATION, priority 2023, published 2026)

Key:
Type in all cases: in vivo
[1] = system: barnyardgrass (Echinochloa crus-galli); assay: Test A preemergence soil spray, visual injury rating 0-100; details: 10 days, 0 = no effect, 100 = complete control
Text: (§1) Seeds of plant species selected from barnyardgrass (Echinochloa crus-galli), blackgrass (Alopecurus myosuroides), corn (Zea mays), foxtail, giant (giant foxtail, Setaria faberi), green foxtail (Setaria viridis), goosegrass (Eleusine indica), kochia (Bassia scoparia), oat, wild (wild oat, Avena fatua), palmer (palmer amaranth, palmer pigweed, Amaranthus palmeri), ragweed (common ragweed, Ambrosia artemisiifolia), ryegrass, Italian (italian ryegrass, Lolium multiflorum), soybean (Glycine max) and wheat (Triticum aestivum) were planted into a blend of loam soil and sand and treated preemergence with a directed soil spray using test chemicals formulated in a non-phytotoxic solvent mixture which included a surfactant.
(§2) At the same time, plants selected from these crops and weed species and also galium (catchweed bedstraw, Galium aparine) and horseweed (Erigeron canadensis) were planted in pots containing the same blend of loam soil and sand and treated with postemergence applications of test chemicals formulated in the same manner. Plants ranged in height from 2 to 10 cm and were in the one- to two-leaf stage for the postemergence treatment. Treated plants and untreated controls were maintained in a greenhouse for 10 days, after which time all treated plants were compared to untreated controls and visually evaluated for injury. Plant response ratings, summarized in Table A, are based on a 0 to 100 scale where 0 is no effect and 100 is complete control. A dash (-) response means no test result.

[2] = system: blackgrass (Alopecurus myosuroides); assay: as above; details: 10 days, 0 = no effect, 100 = complete control
Text: as §1, §2

corn (Zea mays) [3] = assay: as above; details: 10 days, 0 = no effect, 100 = complete control
Text: as §1, §2

[4] = system: green foxtail (Setaria viridis); assay: as above; details: 10 days, 0 = no effect, 100 = complete control
Text: as §1, §2

kochia (Bassia scoparia) [5] = assay: as above; details: 10 days, 0 = no effect, 100 = complete control
Text: as §1, §2

[6] = system: oat, wild (wild oat, Avena fatua); assay: as above; details: 10 days, 0 = no effect, 100 = complete control
Text: as §1, §2

[7] = system: palmer (palmer amaranth, palmer pigweed, Amaranthus palmeri); assay: as above; details: 10 days, 0 = no effect, 100 = complete control
Text: as §1, §2

[8] = system: ragweed (common ragweed, Ambrosia artemisiifolia); assay: as above; details: 10 days, 0 = no effect, 100 = complete control
Text: as §1, §2

[9] = system: ryegrass, Italian (italian ryegrass, Lolium multiflorum); assay: as above; details: 10 days, 0 = no effect, 100 = complete control
Text: as §1, §2

soybean (Glycine max) [10] = assay: as above; details: 10 days, 0 = no effect, 100 = complete control
Text: as §1, §2

[11] = system: wheat (Triticum aestivum); assay: as above; details: 10 days, 0 = no effect, 100 = complete control
Text: as §1, §2

[12] = system: barnyardgrass (Echinochloa crus-galli); assay: Test A postemergence application, visual injury rating 0-100; details: 10 days
Text: as §1, §2

[13] = system: blackgrass (Alopecurus myosuroides); assay: as above; details: 10 days
Text: as §1, §2

corn (Zea mays) [14] = assay: as above; details: 10 days
Text: as §1, §2

[15] = system: green foxtail (Setaria viridis); assay: as above; details: 10 days
Text: as §1, §2

[16] = system: horseweed (Erigeron canadensis); assay: as above; details: 10 days
Text: as §1, §2

kochia (Bassia scoparia) [17] = assay: as above; details: 10 days
Text: as §1, §2

[18] = system: oat, wild (wild oat, Avena fatua); assay: as above; details: 10 days
Text: as §1, §2

[19] = system: palmer (palmer amaranth, palmer pigweed, Amaranthus palmeri); assay: as above; details: 10 days
Text: as §1, §2

[20] = system: ragweed (common ragweed, Ambrosia artemisiifolia); assay: as above; details: 10 days
Text: as §1, §2

[21] = system: ryegrass, Italian (italian ryegrass, Lolium multiflorum); assay: as above; details: 10 days
Text: as §1, §2

soybean (Glycine max) [22] = assay: as above; details: 10 days
Text: as §1, §2

[23] = system: wheat (Triticum aestivum); assay: as above; details: 10 days
Text: as §1, §2

[24] = system: barnyardgrass (Echinochloa crusgalli); assay: Test B flooded paddy test, visual plant response rating 0-100; details: 250 g ai/ha, Flood, applied to paddy water, evaluated after 13 days
Description: (§3) Plant species in the flooded paddy test selected from barnyardgrass (Echinochloa crusgalli), ducksalad (Heteranthera limosa), rice (Oryza sativa), and sedge, umbrella (small-flower umbrella sedge, Cyperus difformis) were grown to the 2-leaf stage for testing. At time of treatment, test pots were flooded to 3 cm above the soil surface, treated by application of test compounds directly to the paddy water, and then maintained at that water depth for the duration of the test. Treated plants and controls were maintained in a greenhouse for 13 days, after which time all species were compared to controls and visually evaluated. […] A dash (-) response means no test result.

[25] = system: ducksalad (Heteranthera limosa); assay: as above; details: 250 g ai/ha, Flood, applied to paddy water, evaluated after 13 days
Description: as §3

rice (Oryza sativa) = assay: as above; details: 250 g ai/ha, Flood, applied to paddy water, evaluated after 13 days
Description: as §3

[26] = system: sedge, umbrella (small-flower umbrella sedge, Cyperus difformis); assay: as above; details: 250 g ai/ha, Flood, applied to paddy water, evaluated after 13 days
Description: as §3

[27] = 31 g ai/ha, postemergence, 0 = no effect, 100 = complete control
[28] = Postemergence, 125 g ai/ha, 0 is no effect, 100 is complete control

CNC(=O)C1CC(NC(=O)C2(C)CN(c3cc(F)cc(F)c3)C(=O)O2)CO1 (centres unmarked) [Compound 8]
Barnyardgrass plant response rating (0-100) ([1]; 31 g ai/ha): 0
Barnyardgrass plant response rating (0 to 100 scale) ([1]; 125 g ai/ha): 10
Blackgrass plant response rating (0-100) ([2]; 31 g ai/ha): 0
Blackgrass plant response rating (0 to 100 scale) ([2]; 125 g ai/ha): 50
Corn plant response rating (0-100) (corn (Zea mays) [3]; 31 g ai/ha): 0
Corn plant response rating (0 to 100 scale) (corn (Zea mays) [3]; 125 g ai/ha): 0
Foxtail, Green plant response rating (0-100) ([4]; 31 g ai/ha): 0
Foxtail, Green plant response rating (0 to 100 scale) ([4]; 125 g ai/ha): 40
Kochia plant response rating (0-100) (kochia (Bassia scoparia) [5]; 31 g ai/ha): 0
Kochia plant response rating (0 to 100 scale) (kochia (Bassia scoparia) [5]; 125 g ai/ha): 70
Oat, Wild plant response rating (0-100) ([6]; 31 g ai/ha): 0
Oat, Wild plant response rating (0 to 100 scale) ([6]; 125 g ai/ha): 20
Amaranth, Palmer plant response rating (0-100) ([7]; 31 g ai/ha): 0
Amaranth, Palmer plant response rating (0 to 100 scale) ([7]; 125 g ai/ha): 0
Ragweed plant response rating (0-100) ([8]; 31 g ai/ha): 60
Ragweed plant response rating (0 to 100 scale) ([8]; 125 g ai/ha): 0
Ryegrass, Italian plant response rating (0-100) ([9]; 31 g ai/ha): 0
Ryegrass, Italian plant response rating (0 to 100 scale) ([9]; 125 g ai/ha): 60
Soybean plant response rating (0-100) (soybean (Glycine max) [10]; 31 g ai/ha): 0
Soybean plant response rating (0 to 100 scale) (soybean (Glycine max) [10]; 125 g ai/ha): 0
Wheat plant response rating (0-100) ([11]; 31 g ai/ha): 0
Wheat plant response rating (0 to 100 scale) ([11]; 125 g ai/ha): 80
Barnyardgrass plant response rating (0-100) [12, 27]: 0
Barnyardgrass plant response rating (0 to 100 scale) [12, 28]: 0
Blackgrass plant response rating (0-100) [13, 27]: 0
Blackgrass plant response rating (0 to 100 scale) [13, 28]: 90
Corn plant response rating (0-100) (corn (Zea mays) [14]; [27]): 0
Corn plant response rating (0 to 100 scale) (corn (Zea mays) [14]; [28]): 0
Foxtail, Green plant response rating (0-100) [15, 27]: 0
Foxtail, Green plant response rating (0 to 100 scale) [15, 28]: 0
Horseweed plant response rating (0-100) [16, 27]: 30
Horseweed plant response rating (0 to 100 scale) [16, 28]: 10
Kochia plant response rating (0-100) (kochia (Bassia scoparia) [17]; [27]): 0
Kochia plant response rating (0 to 100 scale) (kochia (Bassia scoparia) [17]; [28]): 20
Oat, Wild plant response rating (0-100) [18, 27]: 0
Oat, Wild plant response rating (0 to 100 scale) [18, 28]: 0
Amaranth, Palmer plant response rating (0-100) [19, 27]: 0
Amaranth, Palmer / Pigweed, Palmer plant response rating (0 to 100 scale) [19, 28]: 0
Ragweed plant response rating (0-100) [20, 27]: 0
Ragweed plant response rating (0 to 100 scale) [20, 28]: 0
Ryegrass, Italian plant response rating (0-100) [21, 27]: 0
Ryegrass, Italian plant response rating (0 to 100 scale) [21, 28]: 0
Soybean plant response rating (0-100) (soybean (Glycine max) [22]; [27]): 0
Soybean plant response rating (0 to 100 scale) (soybean (Glycine max) [22]; [28]): 0
Wheat plant response rating (0-100) [23, 27]: 0
Wheat plant response rating (0 to 100 scale) [23, 28]: 20
Plant response rating, Barnyardgrass (0 to 100 scale, 0 is no effect and 100 is complete control) [24]: 0
Plant response rating, Ducksalad (0 to 100 scale, 0 is no effect and 100 is complete control) [25]: 0
Plant response rating, Rice (0 to 100 scale, 0 is no effect and 100 is complete control) (rice (Oryza sativa)): 0
Plant response rating, Sedge, Umbrella (0 to 100 scale, 0 is no effect and 100 is complete control) [26]: 0
